Test results reported in patent US20070172957A1, “Methods of identifying anti-inflammatory macrolides” (TAISHO PHARMACEUTICAL CO., LTD., priority 2004, published 2007).

Test system: genes predictive for the anti-inflammatory macrolide effect
Assay: Genes statistically predictive of Clari response: differentially expressed with Clari but not the inactive macrolides MAA or Josa (Appendix E)
Assay type: cell-based
Description: In the case of the above-mentioned (i) related to arachidonic acid biosynthesis, specifically, methods of the embodiment involve assaying whether a test macrolide alters biosynthesis of arachidonic acid, alters the expression or activities of enzymes involved in the biosynthesis or activation of arachidonic acid (e.g., arachidonic acid CoA synthetase, delta-6 desaturase, fatty acid elongase, and delta-5 desaturase, AA-related genes in Tables 2 and 3), or alters the expression of genes identified as predictive for the anti-inflammatory macrolide effect (Appendix E). Assays in which arachidonic acid or gene expression or enzymatic activity is detected can be carried out after contacting a cell with a test macrolide. Any cell line that secretes prostaglandin or produces arachidonic acid can be used. Epithelial and macrophages lines (e.g., A549 or THP-1) are suitable for this purpose; other cell lines can be identified by carrying out assays such as those described in the specific Examples, below. Alternatively, screening assays can be carried out after adding a test macrolide to an in vitro cell system (e.g., a cellular extract or liver microsome preparation) or an in vitro enzyme assay system.

`CC[C@H]1OC(=O)[C@H](C)[C@@H](O[C@H]2C[C@@](C)(OC)[C@@H](O)[C@H](C)O2)[C@H](C)[C@@H](O[C@@H]2O[C@H](C)C[C@H](N(C)C)[C@H]2O)[C@](C)(OC)C[C@@H](C)C(=O)[C@H](C)[C@@H](O)[C@]1(C)O` [clarithromycin] was tested, and the “group mean, gene BCKDK” value (SpotID 47949, MAA and Josa vs. Clari) was 0.94, the “group mean, gene DNASE1L1” value (SpotID 47950, MAA and Josa vs. Clari) was 1.06 and the “mean group, DNASE1L1” value (SpotID 47950, pooled group mean) was 1.03. For the same molecule, the “group mean, gene COX15” value (SpotID 47951, MAA and Josa vs. Clari) was 0.94, the “mean group, USF2” value (SpotID 47973, pooled group mean) was 1.05 and the “group mean, gene THBS1” value (SpotID 47987, MAA and Josa vs. Clari) was 0.60. The “mean group, THBS1” value (SpotID 47987, pooled group mean) was 0.71, the “mean group, RPN2” value (SpotID 47988, pooled group mean) was 1.02 and the “group mean, gene PTGER1” value (SpotID 47995, MAA and Josa vs. Clari) was 0.73. For the same molecule, the “group mean, gene CTSH” value (SpotID 48000, MAA and Josa vs. Clari) was 1.22, the “mean group, CUTL1” value (SpotID 48004, pooled group mean) was 1.02 and the “group mean, gene BCL2L2” value (SpotID 48006, MAA and Josa vs. Clari) was 1.02. For the same molecule, the “mean group, SRF” value (SpotID 48026, pooled group mean) was 1.03, the “group mean, gene SCN1B” value (SpotID 48121, MAA and Josa vs. Clari) was 1.07 and the “mean group, FRDA” value (SpotID 48137, pooled group mean) was 0.90. For the same molecule, the “group mean, gene SFRS7” value (SpotID 48149, MAA and Josa vs. Clari) was 0.85, the “mean group, SFRS7” value (SpotID 48149, pooled group mean) was 0.88 and the “group mean, gene ZAP3” value (SpotID 48160, MAA and Josa vs. Clari) was 0.92. The “mean group, ZAP3” value (SpotID 48160, pooled group mean) was 0.95, the “group mean, gene SNAPC1” value (SpotID 48182, MAA and Josa vs. Clari) was 0.87 and the “group mean, gene OPA1” value (SpotID 48192, MAA and Josa vs. Clari) was 0.90. For the same molecule, the “group mean, gene BAT8” value (SpotID 48214, MAA and Josa vs. Clari) was 1.11, the “group mean, gene MAPK12” value (SpotID 48233, MAA and Josa vs. Clari) was 1.05 and the “mean group, MAPK12” value (SpotID 48233, pooled group mean) was 1.03. The “group mean, gene DAXX” value (SpotID 48235, MAA and Josa vs. Clari) was 0.93, the “group mean, gene GRB2” value (SpotID 48266, MAA and Josa vs. Clari) was 1.06 and the “mean group, GRB2” value (SpotID 48266, pooled group mean) was 1.04. The “group mean, gene ARHC” value (SpotID 48280, MAA and Josa vs. Clari) was 1.01, the “group mean, gene GCN5L1” value (SpotID 48301, MAA and Josa vs. Clari) was 1.02 and the “mean group, GCN5L1” value (SpotID 48301, pooled group mean) was 1.01. The “group mean, gene FN1” value (SpotID 48328, MAA and Josa vs. Clari) was 0.53, the “group mean, gene DNMT1” value (SpotID 48333, MAA and Josa vs. Clari) was 0.79 and the “mean group, CCT3” value (SpotID 48345, pooled group mean) was 1.03. The “group mean, gene FN1” value (SpotID 48348, MAA and Josa vs. Clari) was 0.53, the “group mean, gene CNOT2” value (SpotID 48363, MAA and Josa vs. Clari) was 0.92 and the “group mean, gene MAPK9” value (SpotID 48365, MAA and Josa vs. Clari) was 0.92. For the same molecule, the “mean group, MAPK9” value (SpotID 48365, pooled group mean) was 0.94, the “group mean, gene CNOT2” value (SpotID 48396, MAA and Josa vs. Clari) was 0.91 and the “group mean, gene HIF1A” value (SpotID 48397, MAA and Josa vs. Clari) was 0.89. The “group mean, gene MGEA5” value (SpotID 48411, MAA and Josa vs. Clari) was 1.19, the “mean group, MGEA5” value (SpotID 48411, pooled group mean) was 1.13 and the “group mean, gene SERPINB1” value (SpotID 48415, MAA and Josa vs. Clari) was 1.32. For the same molecule, the “mean group, SERPINB1” value (SpotID 48415, pooled group mean) was 1.28, the “group mean, gene M6PR” value (SpotID 48451, MAA and Josa vs. Clari) was 1.12 and the “group mean, gene DDC” value (SpotID 48456, MAA and Josa vs. Clari) was 0.94. For the same molecule, the “mean group, DDC” value (SpotID 48456, pooled group mean) was 0.97, the “mean group, BARD1” value (SpotID 48461, pooled group mean) was 0.86 and the “group mean, gene MCM5” value (SpotID 48470, MAA and Josa vs. Clari) was 0.68. For the same molecule, the “group mean, gene RBM3” value (SpotID 48471, MAA and Josa vs. Clari) was 0.87, the “mean group, SpotID 48486” value (SpotID 48486 (gene symbol not given), pooled group mean) was 0.94 and the “group mean, gene RPL13A” value (SpotID 48500, MAA and Josa vs. Clari) was 0.90. The “mean group, RPL13A” value (SpotID 48500, pooled group mean) was 0.92, the “group mean, gene USP24” value (SpotID 48508, MAA and Josa vs. Clari) was 0.87 and the “group mean, gene ARAF1” value (SpotID 48521, MAA and Josa vs. Clari) was 0.95. For the same molecule, the “mean group, ARAF1” value (SpotID 48521, pooled group mean) was 0.98, the “group mean, gene APLP2” value (SpotID 48530, MAA and Josa vs. Clari) was 1.15 and the “mean group, APLP2” value (SpotID 48530, pooled group mean) was 1.10. The “mean group, NFE2L1” value (SpotID 48557, pooled group mean) was 1.06, the “mean group, XBP1” value (SpotID 48620, pooled group mean) was 1.10 and the “group mean, gene DIP2” value (SpotID 48643, MAA and Josa vs. Clari) was 0.87. The “group mean, gene KIAA0323” value (SpotID 48644, MAA and Josa vs. Clari) was 1.14, the “group mean, gene SDCBP” value (SpotID 48646, MAA and Josa vs. Clari) was 1.11 and the “mean group, SDCBP” value (SpotID 48646, pooled group mean) was 1.08. For the same molecule, the “mean group, FECH” value (SpotID 48654, pooled group mean) was 0.98, the “group mean, gene CHK” value (SpotID 48672, MAA and Josa vs. Clari) was 1.01 and the “group mean, gene HSPBP1” value (SpotID 48693, MAA and Josa vs. Clari) was 0.87. The “mean group, HSPBP1” value (SpotID 48693, pooled group mean) was 0.91, the “group mean, gene SIGIRR” value (SpotID 48705, MAA and Josa vs. Clari) was 1.12 and the “group mean, gene P4HA1” value (SpotID 48707, MAA and Josa vs. Clari) was 1.25. For the same molecule, the “mean group, P4HA1” value (SpotID 48707, pooled group mean) was 1.18, the “group mean, gene MKNK2” value (SpotID 48713, MAA and Josa vs. Clari) was 1.22 and the “mean group, PPP3CB” value (SpotID 48717, pooled group mean) was 0.95. The “group mean, gene IKKE” value (SpotID 48725, MAA and Josa vs. Clari) was 0.97, the “mean group, IKKE” value (SpotID 48725, pooled group mean) was 0.94 and the “mean group, RALA” value (SpotID 48732, pooled group mean) was 1.06. The “mean group, MAFB” value (SpotID 48747, pooled group mean) was 0.93, the “group mean, gene KIAA0217” value (SpotID 48804, MAA and Josa vs. Clari) was 0.85 and the “mean group, KIAA0217” value (SpotID 48804, pooled group mean) was 0.88.
